# Laboratory results: patent publication US6737383B1, “Herbicidal oxadiazolidines” (priority 1999, dated 2004)
# How the values were obtained:
# [1] = tested on: blackgrass; assay: Test B pre/postemergence blackgrass; type: in vivo, Alopecurus myosuroides
# In short: (§1)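 Response is a visual 0-to-10 score relative to untreated plants, where 0 means no effect and 10 means complete control, taken twelve to sixteen days after application. Treatments went onto soil at planting and onto foliage of 1- to 4-leaf plants, using a surfactant-containing non-phytotoxic solvent.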
# [2] = tested on: cocklebur; assay: Test B pre/postemergence cocklebur; type: in vivo, Xanthium strumarium
# In short: as §1
# [3] = tested on: corn; assay: Test B pre/postemergence corn; type: in vivo, Zea mays
# In short: as §1
# [4] = tested on: crabgrass; assay: Test B pre/postemergence crabgrass; type: in vivo, Digitaria sanguinalis
# In short: as §1
# [5] = tested on: giant foxtail; assay: Test B pre/postemergence giant foxtail; type: in vivo, Setaria faberii
# In short: as §1
# [6] = tested on: morningglory; assay: Test B pre/postemergence morningglory; type: in vivo, Ipomoea hederacea
# In short: as §1
# [7] = tested on: pigweed; assay: Test B pre/postemergence pigweed; type: in vivo, Amaranthus retroflexus
# In short: as §1
# [8] = tested on: rape; assay: Test B pre/postemergence rape; type: in vivo, Brassica napus
# In short: as §1
# [9] = tested on: soybean; assay: Test B pre/postemergence soybean; type: in vivo, Glycine max
# In short: as §1
# [10] = tested on: sugar beet; assay: Test B pre/postemergence sugar beet; type: in vivo, Beta vulgaris
# In short: as §1
# [11] = tested on: velvetleaf; assay: Test B pre/postemergence velvetleaf; type: in vivo, Abutilon theophrasti
# In short: as §1
# [12] = tested on: wheat; assay: Test B pre/postemergence wheat; type: in vivo, Triticum aestivum
# In short: as §1
# [13] = tested on: purple nutsedge; assay: Test B pre/postemergence purple nutsedge; type: in vivo, Cyperus rotundus
# In short: as §1
# [14] = tested on: rice; assay: Test B flood test rice; type: in vivo, Oryza sativa
# In short: (§2)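 Plants were grown to the 2-leaf stage before treatment with test chemical, then held in a greenhouse for twelve to sixteen days. Injury was visually rated against untreated controls on a 0–10 scale, where 0 is no effect and 10 is complete control.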
# [15] = tested on: smallflower flatsedge; assay: Test B flood test smallflower flatsedge; type: in vivo, Cyperus difformis
# In short: as §2
# [16] = tested on: duck salad; assay: Test B flood test duck salad; type: in vivo, Heteranthera limosa
# In short: as §2
# [17] = Postemergence, Rate 125 g/ha, scale of 0 to 10 where 0 is no effect and 10 is complete control
# [18] = Preemergence, Rate 62 g/ha, scale 0 to 10 (0 no effect, 10 complete control)
# [19] = Preemergence, Rate 125 g/ha, 0 is no effect, 10 is complete control
# [20] = Preemergence, Rate 250 g/ha, scale 0 to 10, 0 is no effect, 10 is complete control
# [21] = Preemergence, Rate 500 g/ha, scale 0 to 10 (0 no effect, 10 complete control)
# [22] = Rate 62 g/ha, Postemergence, scale of 0 to 10 where 0 is no effect and 10 is complete control
# [23] = Rate 250 g/ha, Postemergence, scale 0 to 10, 0 is no effect, 10 is complete control
# [24] = Rate 500 g/ha, Postemergence, scale 0 to 10
# [25] = Postemergence (flood test species), Rate 125 g/ha, scale of 0 to 10 where 0 is no effect and 10 is complete control
# [26] = Rate 62 g/ha, Postemergence section, flood test species, scale of 0 to 10 where 0 is no effect and 10 is complete control
# [27] = Rate 250 g/ha, Postemergence (flood test), scale 0 to 10, 0 is no effect, 10 is complete control
# [28] = Rate 500 g/ha, listed under Postemergence (flood test species), scale 0 to 10
structure (smiles),measurement,setting,value
CCN(CC)C(=O)n1oc(=O)n(Cc2ccccc2)c1=O [Compound 152],Blackgrass plant response rating,[1]; [17],0
same,Blackgrass plant response rating,[1]; [18],0
same,Blackgrass plant response rating (0 to 10 scale),[1]; [19],0
same,Blackgrass plant response rating,[1]; [20],0
same,Blackgrass plant response rating,[1]; [21],3
same,Blackgrass plant response rating,[1]; [22],0
same,"Plant response rating, Blackgrass",[1]; [23],0
same,Blackgrass plant response rating,[1]; [24],2
same,Cocklebur plant response rating,[2]; [17],0
same,Cocklebur plant response rating,[2]; [18],0
same,Cocklebur plant response rating (0 to 10 scale),[2]; [19],0
same,Cocklebur plant response rating,[2]; [20],0
same,Cocklebur plant response rating,[2]; [21],0
same,Cocklebur plant response rating,[2]; [22],0
same,"Plant response rating, Cocklebur",[2]; [23],0
same,Cocklebur plant response rating,[2]; [24],0
same,Corn plant response rating,[3]; [17],0
same,Corn plant response rating,[3]; [18],0
same,Corn plant response rating (0 to 10 scale),[3]; [19],0
same,Corn plant response rating,[3]; [20],0
same,Corn plant response rating,[3]; [21],0
same,Corn plant response rating,[3]; [22],0
same,"Plant response rating, Corn",[3]; [23],0
same,Corn plant response rating,[3]; [24],0
same,Crabgrass plant response rating,[4]; [17],0
same,Crabgrass plant response rating,[4]; [18],0
same,Crabgrass plant response rating (0 to 10 scale),[4]; [19],0
same,Crabgrass plant response rating,[4]; [20],1
same,Crabgrass plant response rating,[4]; [21],3
same,Crabgrass plant response rating,[4]; [22],0
same,"Plant response rating, Crabgrass",[4]; [23],2
same,Crabgrass plant response rating,[4]; [24],3
same,Giant foxtail plant response rating,[5]; [17],0
same,Giant foxtail plant response rating,[5]; [18],0
same,Giant foxtail plant response rating (0 to 10 scale),[5]; [19],0
same,Giant foxtail plant response rating,[5]; [20],3
same,Giant foxtail plant response rating,[5]; [21],5
same,Giant foxtail plant response rating,[5]; [22],0
same,"Plant response rating, Giant foxtail",[5]; [23],0
same,Giant foxtail plant response rating,[5]; [24],3
same,Morningglory plant response rating,[6]; [17],0
same,Morningglory plant response rating,[6]; [18],0
same,Morningglory plant response rating (0 to 10 scale),[6]; [19],0
same,Morningglory plant response rating,[6]; [20],0
same,Morningglory plant response rating,[6]; [21],0
same,Morningglory plant response rating,[6]; [22],0
same,"Plant response rating, Morningglory",[6]; [23],0
same,Morningglory plant response rating,[6]; [24],0
same,Redroot pigweed plant response rating,[7]; [17],0
same,Redroot pigweed plant response rating,[7]; [18],0
same,Redroot pigweed plant response rating (0 to 10 scale),[7]; [19],0
same,Redroot pigweed plant response rating,[7]; [20],0
same,Redroot pigweed plant response rating,[7]; [21],0
same,Redroot pigweed plant response rating,[7]; [22],0
same,"Plant response rating, Redroot pigweed",[7]; [23],0
same,Redroot pigweed plant response rating,[7]; [24],0
same,Rape plant response rating,[8]; [17],0
same,Rape plant response rating,[8]; [18],0
same,Rape plant response rating (0 to 10 scale),[8]; [19],0
same,Rape plant response rating,[8]; [20],0
same,Rape plant response rating,[8]; [21],0
same,Rape plant response rating,[8]; [22],0
same,"Plant response rating, Rape",[8]; [23],0
same,Rape plant response rating,[8]; [24],0
same,Soybean plant response rating,[9]; [17],0
same,Soybean plant response rating,[9]; [18],0
same,Soybean plant response rating (0 to 10 scale),[9]; [19],0
same,Soybean plant response rating,[9]; [20],0
same,Soybean plant response rating,[9]; [21],0
same,Soybean plant response rating,[9]; [22],0
same,"Plant response rating, Soybean",[9]; [23],1
same,Soybean plant response rating,[9]; [24],1
same,Sugarbeets plant response rating,[10]; [17],0
same,Sugarbeets plant response rating,[10]; [18],0
same,Sugarbeets plant response rating (0 to 10 scale),[10]; [19],0
same,Sugarbeets plant response rating,[10]; [20],0
same,Sugarbeets plant response rating,[10]; [21],0
same,Sugarbeets plant response rating,[10]; [22],0
same,"Plant response rating, Sugarbeets",[10]; [23],0
same,Sugarbeets plant response rating,[10]; [24],0
same,Velvetleaf plant response rating,[11]; [18],0
same,Velvetleaf plant response rating (0 to 10 scale),[11]; [19],0
same,Velvetleaf plant response rating,[11]; [20],0
same,Velvetleaf plant response rating,[11]; [21],0
same,Velvetleaf plant response rating,[11]; [22],0
same,"Plant response rating, Velvetleaf",[11]; [23],0
same,Velvetleaf plant response rating,[11]; [24],0
same,Wheat plant response rating,[12]; [18],0
same,Wheat plant response rating (0 to 10 scale),[12]; [19],0
same,Wheat plant response rating,[12]; [20],0
same,Wheat plant response rating,[12]; [21],0
same,Wheat plant response rating,[12]; [22],0
same,"Plant response rating, Wheat",[12]; [23],0
same,Wheat plant response rating,[12]; [24],0
same,Nutsedge plant response rating,[13]; [17],0
same,Nutsedge plant response rating,[13]; [18],0
same,Nutsedge plant response rating (0 to 10 scale),[13]; [19],0
same,Nutsedge plant response rating,[13]; [20],0
same,Nutsedge plant response rating,[13]; [21],0
same,Nutsedge plant response rating,[13]; [22],0
same,"Plant response rating, Nutsedge",[13]; [23],0
same,Nutsedge plant response rating,[13]; [24],0
same,Rice plant response rating,[14]; [25],0
same,Rice plant response rating,[14]; [26],0
same,"Plant response rating, Rice",[14]; [27],0
same,Rice plant response rating,[14]; [28],0
same,S. Flatsedge plant response rating,[15]; [25],0
same,S. Flatsedge plant response rating,[15]; [26],0
same,"Plant response rating, S. Flatsedge",[15]; [27],0
same,S. Flatsedge plant response rating,[15]; [28],0
same,Ducksalad plant response rating,[16]; [25],0
same,Ducksalad plant response rating,[16]; [26],0
same,"Plant response rating, Ducksalad",[16]; [27],0
same,Ducksalad plant response rating,[16]; [28],0
